Literature values in patent US12029741B1, “5 beta dihydrotestosterone pharmaceutical formulations and related methods” (priority 2021, dated 2024).

Columns and labels:
[1] = system: Vascular Vessels; conditions: result in words
[2] = transdermal treatment; called an estimate

SMILES | efficacy as a vasodilator compared with testosterone [1] | terminal half-life [2]
C[C@]12CCC(=O)C[C@@H]1CC[C@@H]1[C@@H]2CC[C@]2(C)[C@@H](O)CC[C@@H]12 [5α-DHT, 5α-dihydrotestosterone] | less efficacious than testosterone | 2.83 h
C[C@]12CC[C@H]3[C@@H](CCC4=CC(=O)CC[C@@]43C)[C@@H]1CC[C@@H]2O [testosterone] | – | 1.29 h
C[C@]12CCC(=O)C[C@H]1CC[C@@H]1[C@@H]2CC[C@]2(C)[C@@H](O)CC[C@@H]12 [5β-DHT, 17β-hydroxy-5β-androstan-3-one] | more efficacious and/or potent than testosterone | –
